Results on six molecules are retold here after ChEMBL document CHEMBL1128407 (J Med Chem, 1995).

The target of experiment [1] is Tubulin alpha chain (Sus scrofa) (UniProt P02550). As to the kind of experiment: Compound is evaluated for tubulin polymerization (ratio of compound relative to paclitaxel (EC0.01).
In a further experiment the test system is HCT-116. As to the kind of experiment: Compound is evaluated for an in vitro cytotoxicity assay against HCT116 tumor cell lines. It counts as functional, cell-based. The settings on record: Homo sapiens.

SMILES strings stand for the structures.

Chain of Tubulin alpha chain (Sus scrofa) (P02550 whole entry, looked up): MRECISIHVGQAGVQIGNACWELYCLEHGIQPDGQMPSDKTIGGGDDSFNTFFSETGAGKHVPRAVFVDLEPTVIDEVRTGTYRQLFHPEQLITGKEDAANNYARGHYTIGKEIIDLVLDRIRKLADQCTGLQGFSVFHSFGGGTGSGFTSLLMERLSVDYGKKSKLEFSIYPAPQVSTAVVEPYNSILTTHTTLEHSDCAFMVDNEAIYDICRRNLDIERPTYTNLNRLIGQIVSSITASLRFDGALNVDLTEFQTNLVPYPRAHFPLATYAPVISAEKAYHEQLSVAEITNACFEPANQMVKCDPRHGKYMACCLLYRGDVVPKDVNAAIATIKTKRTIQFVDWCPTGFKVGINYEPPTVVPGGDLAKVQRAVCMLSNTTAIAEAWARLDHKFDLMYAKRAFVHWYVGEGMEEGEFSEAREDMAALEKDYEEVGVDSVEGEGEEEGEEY

A word on the IC50: it is the concentration that inhibits the measured activity by half. Turning to `CC(=O)O[C@H]1C(=O)[C@]2(C)[C@@H](O)CC3OC[C@@]3(OC(=O)N3CC3)[C@H]2[C@H](OC(=O)c2ccccc2)[C@]2(O)C[C@H](OC(=O)[C@H](O)[C@@H](NC(=O)OC(C)(C)C)c3ccco3)C(C)=C1C2(C)C` (stereo not given in full), in experiment [1], the Ratio was 0.8. Further, in the experiment with HCT-116, 2 nM corresponded to half-maximal inhibition (IC50). Taken in the same sequence, the figures for `CC(=O)O[C@H]1C(=O)[C@]2(C)[C@@H](O)CC3OC[C@@]3(OC(C)=O)[C@H]2[C@H](OC(=O)c2ccccc2)[C@]2(O)C[C@H](OC(=O)[C@H](O)[C@@H](NC(=O)c3ccccc3)c3ccoc3)C(C)=C1C2(C)C` (stereo not given in full) were 0.85 and 0.74 nM. Taken in the same sequence, the figures for `CC(=O)O[C@H]1C(=O)[C@]2(C)[C@@H](O)CC3OC[C@@]3(OC(C)=O)[C@H]2[C@H](OC(=O)c2ccccc2)[C@]2(O)C[C@H](OC(=O)[C@H](O)[C@@H](NC(=O)OC(C)(C)C)c3ccccc3)C(C)=C1C2(C)C` (stereo not given in full) were 0.55 and 0.55 nM. Consider `CC(=O)O[C@H]1C(=O)[C@@]2(C)[C@H]([C@H](OC(=O)c3ccccc3)[C@]3(O)C[C@H](OC(=O)[C@H](O)[C@@H](NC(=O)c4ccccc4)c4ccccc4)C(C)=C1C3(C)C)[C@]1(OC(=O)N3CC3)CO[C@@H]1C[C@@H]2O`, for which half-maximal inhibition in the experiment with HCT-116 (IC50) was put at 15.6 nM. As for `CC(=O)O[C@H]1C(=O)[C@]2(C)[C@@H](O)CC3OC[C@@]3(OC(=O)N3CC3)[C@H]2[C@H](OC(=O)c2ccccc2)[C@]2(O)C[C@H](OC(=O)[C@H](O)[C@@H](NC(=O)c3ccccc3)c3ccco3)C(C)=C1C2(C)C` (stereo not given in full), the Ratio in experiment [1] came to 0.7. The molecule further showed an IC50 with HCT-116 of 6.9 nM. `CC(=O)O[C@H]1C(=O)[C@]2(C)[C@@H](O)CC3OC[C@@]3(OC(=O)C3CC3)[C@H]2[C@H](OC(=O)c2ccccc2)[C@]2(O)C[C@H](OC(=O)[C@H](O)[C@@H](NC(=O)c3ccccc3)c3ccccc3)C(C)=C1C2(C)C` (stereo not given in full) returned a 50% inhibitory concentration (IC50) in the experiment on HCT-116 of 1 nM.
